Data: patent US12521406B2, “Use of compounds in the treatment of fungal infections” (Basilea Pharmaceutica International AG, Allschwil, priority 2020, dated 2026)

Experiments:
[1] = tested on: Fusarium, Aspergillus/Lichtheimia, C. albicans, L. prolificans infection; conditions: human, in vivo
Source text: Population: A total of 15 patients with life-threatening/serious fungal infections received treatment, with slight modifications. […] Of these patients, 12 have an invasive Fusarium infection, while the remaining patients have Aspergillus/Lichtheimia infection, C. albicans infection, and L. prolificans infection. […] These patients show a broad range of fungal infection sites with sinus, spine, ankle, skin, eye, brain, and disseminated infections all observed. Many of these patients also have an underlying disease/condition, such as AML/ALL/MDS, SC/solid organ transplantation, or trauma.
Updates to Dosing Regimen: Seven patients received IV dosing of compound 1, and six of these seven switched to oral doses. Eight patients received oral doses only. […] Additionally, eight patients received oral compound 1 at 400 mg BID rather than 800 mg QD.

[2] = in vivo
[3] = Phase 1, healthy volunteers
Source text: The duration of the multiple-dose regimens in these studies was 7, 14, and 42 days (6 weeks).
One dose regimen of compound 1 will be evaluated in this study.

A. fumigatus = experiment: PK-PD study in immunocompromised mice infected with 6 strains of A. fumigatus; format: in vivo; conditions: fungal burden (CEs by qPCR) in lung homogenates at 96 hours; 6 A. fumigatus strains
Description: Pharmacokinetic-pharmacodynamic (PK-PD) studies in immunosuppressed mice with invasive infections caused by A. fumigatus have shown that the area under the concentration-time curve (AUC) divided by the minimal effective concentration (MEC) ratio is the driver of efficacy.
In a pharmacokinetic/pharmacodynamic (PK-PD) study, immunocompromised mice were infected with 6 strains of A. fumigatus, inclusive of wild type, azole-resistant, and echinocandin-resistant strains. Groups of animals were dosed with compound 1 at different dose fractionations. […] The stasis and 1-logarithm drop endpoints were defined as the quantity of A. fumigatus in CEs just prior to compound 1 administration compared to CEs at the endpoint of assessment at 96 hours.

[4] = tested on: Aspergillus spp. or rare molds; experiment: Phase 2 open-label study in patients with invasive mold infections; format: in vivo, human; conditions: 12 patients treated
Source text: This is a Phase 2, multicenter, open-label, non-comparative study to evaluate the safety and efficacy of compound 1 for the treatment of IMIs caused by Aspergillus spp. or rare molds (e.g., Scedosporium spp., Fusarium spp., and Mucorales fungi). Patients 18 years of age or older will undergo Screening procedures for up to 5 days, following which eligible patients will participate in the study drug Treatment Period for up to 6 weeks, with a Follow-Up Visit 4 weeks after EOST, and a Follow-Up Phone Call 12 weeks after Day 1 (Day 84). The total duration of a patient's participation in the study will be approximately 12 weeks, inclusive of the follow-up telephone call required on Day 84. Patients who require treatment for longer than 6 weeks can be switched to other licensed antifungal therapy (OLAT) at the discretion of the Investigator and in consultation with the Medical Monitor if the situation allows.
This study will consist of a single treatment arm consisting of a loading dose of 1000 mg compound 1, administered over 3 hours by IV infusion twice daily (BID) within the first 24 hours after initiation of the first infusion. On Days 2 and 3, 600 mg compound 1 will be administered over 3 hours by IV infusion once daily (QD). […]

[5] = tested on: Candida spp., Cryptococcus spp., Aspergillus spp., Scedosporium spp., Fusarium spp., and some Mucorales fungi; experiment: In vitro antifungal activity; format: cell-based
Source text: These rare mold and rare yeast species generally pose no threat to healthy subjects, but can lead to invasive mold infections in immunocompromised individuals.

[6] = tested on: Aspergillus spp. clinical isolates; experiment: 2017 and 2018 surveillance of antifungal activity against Aspergillus clinical isolates (MEC); format: cell-based; conditions: Aspergillus isolates likely to be found in the clinical patient population
Description: The MEC in […] (MEC90) for Aspergillus isolates likely to be found in the clinical patient population under study is 0.03 μg/mL.

[7] = target: T1, phosphatidylinositol glycan anchor biosynthesis class W (PIGW) protein (Homo sapiens, UniProt Q7Z7B1); experiment: Inhibition of PIGW, closest mammalian ortholog of GWT1; format: biochemical; conditions: closest mammalian ortholog of the fungal GWT1 protein
T1 sequence (Q7Z7B1 1-504): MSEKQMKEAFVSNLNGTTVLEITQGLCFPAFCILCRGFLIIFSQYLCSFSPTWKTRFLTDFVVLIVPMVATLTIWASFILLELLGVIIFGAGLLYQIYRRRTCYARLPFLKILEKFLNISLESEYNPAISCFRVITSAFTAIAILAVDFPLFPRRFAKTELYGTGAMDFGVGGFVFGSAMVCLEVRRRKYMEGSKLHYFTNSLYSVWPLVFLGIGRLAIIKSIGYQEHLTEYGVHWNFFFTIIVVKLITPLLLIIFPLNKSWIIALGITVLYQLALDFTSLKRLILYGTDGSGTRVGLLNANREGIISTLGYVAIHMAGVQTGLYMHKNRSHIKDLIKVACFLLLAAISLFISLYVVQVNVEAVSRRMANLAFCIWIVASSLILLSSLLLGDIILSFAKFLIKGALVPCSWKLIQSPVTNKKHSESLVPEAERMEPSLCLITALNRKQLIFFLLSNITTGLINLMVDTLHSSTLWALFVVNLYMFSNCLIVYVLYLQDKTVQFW
Source text: (§1) Compound 1A inhibits the fungal glycosylphosphatidylinositol (GPI)-anchored wall transfer protein 1 (GWT1) enzyme, a highly conserved inositol acylase that catalyzes an early step in the GPI-anchored biosynthesis pathway. This inhibition has pleiotropic effects on the fungal cell due to inhibition of cell wall mannoprotein localization, which comprises cell wall integrity, biofilm formation, germ tube formation, and fungal growth.

[8] = tested on: Aspergillus fumigatus, Scedosporium prolificans, and Fusarium solani; experiment: 5-fluorouracil immunosuppressed mice with IMIs; format: in vivo
[9] = target: fungal glycosylphosphatidylinositol (GPI)-anchored wall transfer protein 1 (GWT1) enzyme (Saccharomyces cerevisiae, UniProt P47026); experiment: Inhibition of fungal GWT1 enzyme; format: biochemical
Source text: as §1

Sequence of fungal glycosylphosphatidylinositol (GPI)-anchored wall transfer protein 1 (GWT1) enzyme (P47026 whole entry): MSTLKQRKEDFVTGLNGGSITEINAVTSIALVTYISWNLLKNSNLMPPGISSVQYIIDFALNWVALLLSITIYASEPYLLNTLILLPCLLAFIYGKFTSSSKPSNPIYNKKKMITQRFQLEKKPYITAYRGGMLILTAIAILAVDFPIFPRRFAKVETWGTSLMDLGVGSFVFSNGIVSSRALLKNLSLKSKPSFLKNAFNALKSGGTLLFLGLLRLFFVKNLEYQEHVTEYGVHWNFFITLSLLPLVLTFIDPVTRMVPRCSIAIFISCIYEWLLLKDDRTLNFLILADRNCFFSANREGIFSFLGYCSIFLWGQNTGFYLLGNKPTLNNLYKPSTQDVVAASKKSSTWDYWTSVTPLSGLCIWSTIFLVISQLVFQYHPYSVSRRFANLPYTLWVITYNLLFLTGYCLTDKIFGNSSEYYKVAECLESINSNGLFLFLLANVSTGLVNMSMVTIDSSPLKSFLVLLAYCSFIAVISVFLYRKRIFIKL

Row | Structure (SMILES) | tolerability over extended treatment durations [1] | conversion of prodrug to active moiety compound 1A [2] | tissue distribution [2] | safety and tolerability of the dose regimen [3] | median total drug AUC/MEC which achieved 1-logarithm kill endpoint (A. fumigatus) | median total drug AUC/MEC which achieved stasis endpoint (A. fumigatus) | patients with good response (at Day 42 or earlier) [4] [patients] | in vitro antifungal activity ([5]; including azole- and echinocandin-resistant strains) | antifungal activity against clinical isolates of rare mold and rare yeast infections ([5]; rare molds and rare yeasts listed) | MEC90 [6] [µg/mL] | inhibition of PIGW protein [7] | pulmonary fungal colony counts [8] | survival rates [8] | inhibition of fungal GWT1 enzyme [9]
1 | Nc1c(-c2cc(Cc3ccc(COc4ccccn4)cc3)no2)ccc[n+]1COP(=O)([O-])O [compound 1] | generally well tolerated | rapidly converted in vivo by phosphatases | wide-tissue distribution, including the eye and central nervous system | safe and well tolerated | 5258.2 | 2801.6 | 8 | – | – | – | – | – | – | –
2 | Nc1ncccc1-c1cc(Cc2ccc(COc3ccccn3)cc2)no1 [Compound 1A] | – | – | – | – | – | – | – | broad in vitro antifungal activity | antifungal activity against a broad range of clinical isolates | 0.03 | does not inhibit | reduced pulmonary fungal colony counts | statistically significantly improved survival rates | inhibits
